In test [1] the test system is ARV7. Put plainly: Western blot assay in 22Rv1 cells: ARV7. To be noted: different concentrations at 24 h, and 3 nM at different time points (FIGS. 7 and 8). The format is cell-based, human. The text has this: (§1) Example 84: Western Blot Assay of Compound C59 in 22Rv1, PC-3, and HepG2 Cells
(§2) (1) Materials: 22Rv1, PC-3, and HepG2 cell, anti-SRD5A1 antibody (ab167606), anti-SRD5A2 antibody (ab124877), anti-SRD5A3 antibody (PA5-107029), anti-androgen receptor (AR) antibody (CST, No. 5153), anti-GSPT1 antibody (Abcam, ab234433), anti-GADPH antibody (CST, No. 5174), anti-c-Myc antibody (CST, No. 8583), anti-α-tublin antibody (CST, No. 2125), anti-rabbit IgG, HRP-linked antibody (CST, No. 7074), electrophoresis device and membrane transfer device (LIUYI, BEIJING; DYCZ-24DN)
(§3) Cell seeding: 22Rv1 (Cell Bank of the Chinese Academy of Sciences, TCHu100), PC-3 (Cell Bank of the Chinese Academy of Sciences, SCSP-532) and HepG2 cells (Cell Bank of the Chinese Academy of Sciences, TCHu72) were subcultured and trypsinized to prepare 6×10^5 cells/mL suspensions, seeded on 6-well plates (3 mL/well), and cultured overnight in a cell incubator at 5% CO2 and 37° C. […]
(§4) Protein quantification: The protein was quantified using a BCA protein quantification kit. […]
(§5) Western immunoblot assay (or Western blot, WB): SDS-PAGE gel at a proper concentration was prepared according to the molecular weight of the target protein: for example, the concentration of the separation gel was 8% and the concentration of the stacking gel was 5%. The loading volume was adjusted according to the protein quantification results. […]
A general note: Immunoblotting shows a protein as a band on a membrane.

The target of test [2] is T1, GSPT1 (Homo sapiens, UniProt P15170+Q96SW2).
T1 construct: The downregulation of SRD5A3 and GSPT1 (eRF3a) proteins in PC-3 and HepG2 cells by C59; endogenous in cells; host or cells: 22Rv1, PC-3, HepG2
Put plainly: Western blot assay in 22Rv1 cells: GSPT1. The test is classed as cell-based. The settings on record: different concentrations at 24 h, and 3 nM at different time points (FIGS. 7 and 8).
From the text: as §1, §2, §3, §4, §5

Test [3] deals with DU 145 cells. Description: Anti-proliferative toxicity of C63 in tumor cell lines (CCK8): DU 145. To be noted: Homo sapiens, 72 h, 3 days, read-out: Inhibition rate. The test is classed as cell-based. The protocol: (§6) Example 83: Detection of Anti-Proliferative Toxicity of C63 in Some Tumor Cell Lines
DU 145 cells (purchased from the Cell Bank of the Chinese Academy of Sciences, Cat. No. SCSP-5024) were subcultured in a culture medium (MVEM medium+[…] penicillin-streptomycin dual-antibiotic solution+10% fetal bovine serum) in an incubator at 5% carbon dioxide and 37° C.
DU 145 cells were seeded at 5000 cells/well (90 μL) on a 96-well plate and cultured for 24 h.
(§7) 10 mM compound stock solutions were prepared in DMSO.
(§8) The compound stock solution was diluted with DMSO to give DMSO solutions 1-9 at concentrations of 0 μM, 2500 μM, 500 μM, 100 μM, 20 μM, 4 μM, 0.8 μM, 0.16 μM, and 0.032 μM.
(§9) 2 μL of each of solutions 1-9 was added to 98 μL of the medium to give mixed solutions 11-19 of the compound and the medium.
(§10) 10 μL of each of solutions 11-19 was added to the above cell seed solution to give a total volume of 100 μL (90 μL+10 μL).
(§11) The concentrations of the compound in the wells were 0 μM, 5.0 μM, 1.0 μM, 0.2 μM, 0.04 μM, 0.008 μM, 0.0016 μM, 0.00032 μM, and 0.000064 μM. All concentrations were in triplicate.
(§12) After the above-treated cells were cultured for 3 days, 10 μL of the CCK8 solution (DOJINDO, Cat. No. PF725) was added to each well. The plate was incubated in an incubator at 37° C. for 1-4 h and then detected on a microplate reader for the reading at 450 nm.

In test [4] the test system is BT-549 cells. Description: Anti-proliferative toxicity of C63 in tumor cell lines (CCK8): BT-549. The test is classed as cell-based. The settings on record: Homo sapiens, 72 h, 3 days, read-out: Inhibition rate. The protocol:
as §6
BT-549 cells (purchased from the Cell Bank of the Chinese Academy of Sciences, Cat. No. TCHu93) were subcultured in a culture medium (RPMI-1640 medium+1% penicillin-streptomycin dual-antibiotic solution++10% fetal bovine serum+0.01 mg/mL recombinant human insulin) in an incubator at 5% carbon dioxide and 37° C.
BT-549 cells were seeded at 5000 cells/well (90 μL) on a 96-well plate and cultured for 24 h.
as §7, §8, §9, §10, §11, §12

T1 sequence (P15170 1-637 isoform P15170-3): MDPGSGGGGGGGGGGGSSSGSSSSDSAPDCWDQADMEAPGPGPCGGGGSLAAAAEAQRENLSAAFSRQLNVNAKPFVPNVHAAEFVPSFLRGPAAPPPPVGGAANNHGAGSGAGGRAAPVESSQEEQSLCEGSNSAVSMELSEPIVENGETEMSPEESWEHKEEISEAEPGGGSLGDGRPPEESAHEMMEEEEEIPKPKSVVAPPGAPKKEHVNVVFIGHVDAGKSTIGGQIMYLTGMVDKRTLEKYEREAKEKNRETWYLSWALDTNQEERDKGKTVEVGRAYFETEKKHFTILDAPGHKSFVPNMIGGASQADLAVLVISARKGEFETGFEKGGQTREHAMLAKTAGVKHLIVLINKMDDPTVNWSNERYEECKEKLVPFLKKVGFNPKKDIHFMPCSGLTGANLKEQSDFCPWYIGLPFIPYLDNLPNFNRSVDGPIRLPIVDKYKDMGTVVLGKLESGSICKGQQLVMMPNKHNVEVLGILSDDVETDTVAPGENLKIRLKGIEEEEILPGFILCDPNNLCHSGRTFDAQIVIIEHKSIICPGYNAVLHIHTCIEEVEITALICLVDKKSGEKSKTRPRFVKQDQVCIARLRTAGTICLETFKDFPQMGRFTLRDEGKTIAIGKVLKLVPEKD
T1 sequence (Q96SW2 whole entry): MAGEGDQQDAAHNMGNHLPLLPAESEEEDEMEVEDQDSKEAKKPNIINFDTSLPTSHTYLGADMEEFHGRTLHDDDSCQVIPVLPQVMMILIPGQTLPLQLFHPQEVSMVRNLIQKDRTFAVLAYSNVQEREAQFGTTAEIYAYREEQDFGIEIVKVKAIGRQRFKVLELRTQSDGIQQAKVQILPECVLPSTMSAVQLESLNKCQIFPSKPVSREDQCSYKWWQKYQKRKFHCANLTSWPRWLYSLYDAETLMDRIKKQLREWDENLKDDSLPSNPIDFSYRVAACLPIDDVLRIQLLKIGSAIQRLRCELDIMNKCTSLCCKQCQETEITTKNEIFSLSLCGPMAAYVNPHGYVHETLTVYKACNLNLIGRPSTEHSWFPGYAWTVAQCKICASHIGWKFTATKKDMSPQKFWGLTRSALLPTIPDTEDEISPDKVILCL
T1 sequence (Q16531 whole entry partner): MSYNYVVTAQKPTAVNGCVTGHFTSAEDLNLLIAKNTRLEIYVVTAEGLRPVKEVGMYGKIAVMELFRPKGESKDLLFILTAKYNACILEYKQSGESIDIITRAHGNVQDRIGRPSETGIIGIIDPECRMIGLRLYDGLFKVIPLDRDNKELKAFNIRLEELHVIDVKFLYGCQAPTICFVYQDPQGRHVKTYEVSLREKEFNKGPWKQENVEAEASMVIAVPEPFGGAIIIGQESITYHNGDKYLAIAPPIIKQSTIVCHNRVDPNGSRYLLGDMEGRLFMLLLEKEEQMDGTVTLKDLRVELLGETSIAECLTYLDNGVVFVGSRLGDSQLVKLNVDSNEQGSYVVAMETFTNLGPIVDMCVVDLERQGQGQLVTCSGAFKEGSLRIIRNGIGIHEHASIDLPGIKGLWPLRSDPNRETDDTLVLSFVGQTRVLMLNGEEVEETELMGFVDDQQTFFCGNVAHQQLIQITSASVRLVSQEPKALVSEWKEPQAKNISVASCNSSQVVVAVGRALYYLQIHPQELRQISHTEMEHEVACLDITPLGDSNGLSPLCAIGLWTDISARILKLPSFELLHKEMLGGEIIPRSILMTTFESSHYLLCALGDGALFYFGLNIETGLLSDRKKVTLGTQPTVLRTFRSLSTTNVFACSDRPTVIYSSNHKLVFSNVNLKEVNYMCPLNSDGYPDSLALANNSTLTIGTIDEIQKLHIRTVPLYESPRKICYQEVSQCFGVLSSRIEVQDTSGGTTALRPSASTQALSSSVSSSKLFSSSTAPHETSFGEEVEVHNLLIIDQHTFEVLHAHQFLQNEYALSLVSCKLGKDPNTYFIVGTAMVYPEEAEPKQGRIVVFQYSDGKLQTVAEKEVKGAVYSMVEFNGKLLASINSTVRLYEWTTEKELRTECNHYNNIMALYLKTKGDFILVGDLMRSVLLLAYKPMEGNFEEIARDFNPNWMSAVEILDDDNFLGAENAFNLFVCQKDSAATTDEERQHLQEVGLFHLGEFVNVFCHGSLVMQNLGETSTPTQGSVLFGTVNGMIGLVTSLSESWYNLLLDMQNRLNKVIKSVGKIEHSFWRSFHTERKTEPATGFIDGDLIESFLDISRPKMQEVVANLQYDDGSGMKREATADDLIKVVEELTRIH

In the case of `C[C@]12C=CC(=O)N[C@@H]1CC[C@@H]1[C@@H]2CC[C@]2(C)[C@@H](C(=O)Nc3cccc(N[C@@H]4CCC[C@@H](Nc5cccc6c5C(=O)N(C5CCC(=O)NC5=O)C6=O)C4)c3)CC[C@@H]12` (stereo partly drawn) [C59, N-(3-(N—(N-(4-(2-(3-(2,6-dioxopiperidine))-isoindole-1,3-dione))-1R,3R-cyclohexanediamine))phenyl)-3-oxo-4-aza-5α-androst-1-ene-17β-carboxamide], in test [1], the “downregulation of ARV7 protein (Western blot)” value was “downregulation”. In addition, in test [2], the “downregulation of GSPT1 protein (Western blot)” value is recorded as “downregulation”.
Turning to `C[C@]12C=CC(=O)N[C@@H]1CC[C@@H]1[C@@H]2CC[C@]2(C)[C@@H](C(=O)Nc3cccc(N[C@@H]4CCC[C@@H](Nc5cccc6c5C(=O)N([C@H]5CCC(=O)NC5=O)C6=O)C4)c3)CC[C@@H]12` [C63, N-(3-(N—(N-(4-(2-(3S-(2,6-dioxopiperidine))-isoindole-1,3-dione))-1R,3R-cyclohexanediamine))phenyl)-3-oxo-4-aza-5α-androst-1-ene-17β-carboxamide], the inhibition – broadly, the drop in the measured response relative to a control, in per cent – at 64 pM is 22.1% in test [3] (0.000064 μM) and 29.3% in test [4] (0.000064 μM). Moreover, the inhibition at 0.00032 µM in test [3] (0.000320 μM) was determined as 20.5%; in test [4] (0.000320 μM), 28%. The inhibition at 0.0016 µM was 22.7% in test [3] (0.001600 μM) and 77.5% in test [4] (0.001600 μM). Also, the results for the inhibition at 0.008 µM in test [3] (0.008000 μM) and in test [4] (0.008000 μM) were 48.4% and 84.3%, respectively. Besides, the inhibition at 0.04 µM in test [3] (0.040000 μM) amounted to 60.9%; in test [4] (0.040000 μM) it was 84.6%. Further, the figures for the inhibition at 0.2 µM in test [3] (0.200000 μM) and in test [4] (0.200000 μM) were 74.3% and 85.6%, respectively. Also, the inhibition at 1 µM in test [3] (1.000000 μM) is 81.9%; in test [4] (1.000000 μM) it was 84.3%. In addition, the values for the inhibition at 5 µM in test [3] (5.000000 μM) and in test [4] (5.000000 μM) were 82.4% and 87.5%, respectively.

The values are drawn from US20250213701A1, “MEDICAMENT FOR TREATING HUMAN TUMOR BASED ON ERF3A-TARGETING PROTEOLYSIS MECHANISM” (SUZHOU DEGEN BIO-MEDICAL CO., LTD., priority 2022, published 2025).
